Patent US20250179022A1, “COMPOUND USED AS TYK2 INHIBITOR, PREPARATION METHOD THEREFOR, AND PHARMACEUTICAL USE THEREOF” (SHANGHAI ZHIGEN PHARMACEUTICAL & TECHNOLOGY CO. LTD., priority 2022, published 2025)

Columns and labels:
TYK2 = molecular target: T1, TYK2 (Homo sapiens, UniProt P29597, E957D); experiment: TYK2 kinase activity inhibition assay (Ba/F3-FL-TYK2-E957D cell proliferation, CellTiter-Glo); type: cell-based; conditions: 72 h
T1 construct: host or cells: Ba/F3 (murine B lymphocytes)
Description: The TYK2 kinase gene was introduced into wild-type murine-derived B lymphocytes (BaF3) to construct the Ba/F3-FL-TYK2-E957D stable cell line.
In this experiment, the inhibitory effect of the compounds on the proliferation of Ba/F3-FL-TYK2-E957D cells were tested, apoptosis was detected, and the IC50 value was calculated. The inhibitory activity of the compounds against TYK2 kinase was evaluated based on the IC50 value.
The tested compounds, powder and stored at room temperature, were prepared into 10 mM stock solution with DMSO and stored at −20° C. away from light for use.
Compounds were prepared into dilute solutions which was 1000 times of the final concentration. The compound was prepared into 20-times of the final concentration by diluting the compound with culture medium. 2 ul of 1000-times compound was added to per well to 98 ul of culture medium.
Cells (provided by Sundia Pharmaceutical Technology (Shanghai) Co., Ltd.) were resuspended and counted using an automated cell counter. The cell suspension was diluted to the desired density based on BaF3 seeding density of 2000 cells per well. Each well was plated with 95 ul of cells and incubated at 37° C. for stable equilibrium. 5 ul of 20-times compound was added to each well, with the wells to which the same volume of DMSO was added as a control.
The cell plate was equilibrated to room temperature. 40 ul CellTiter-Glo® Reagent was added to each well, shaken for 2 minutes and allowed to stand for 10 minutes. Detected with SpectraMax Paradigm.
• (1) IC50 was calculated using GraphPad Prism 5. • (2) % Inh=(Max signal−Compound signal)/(Max signal−Min signal)×100. • (3) Max signal was the positive control well with only the same volume of DMSO as the compound. • (4) Min signal was the negative control well with only the culture medium.

[1] = test system: IFN-α-induced STAT phosphorylation; experiment: IFN-α-induced STAT phosphorylation in human whole blood; type: cell-based; conditions: human whole blood, 20 ng/ml IFN-α, pSTAT5 in CD3-positive cells; read-out: IC50, IFN-α inflammatory pathway (IFN-α-induced STAT phosphorylation)
Source text: The cytokine receptor attached to TYK2 mediates the signaling of type 1 interferon (IFN-α), which has been identified as the most important inflammatory factor of the autoimmune system. Human whole blood is induced with IFN-α, and TYK2 from lymphocytes in whole blood triggered STAT phosphorylation, which mediated subsequent inflammatory signaling. Therefore, TYK2 inhibitors have an inhibitory effect on IFN-α signaling, and the stronger the TYK2 inhibitory activity, the lower the level of STAT phosphorylation, and the stronger the corresponding anti-inflammatory effect.
In this experiment, the ability of the compounds to inhibit IFN-α-induced STAT phosphorylation in human whole blood were tested, and the IC50 values were calculated. The anti-inflammatory activity of the compounds was evaluated at the tissue level and evaluation of the inhibitory activity of compounds on the IFN-α inflammatory pathway based on the IC50 value.
The tested compound, powder and stored at room temperature, prepared into 10 mM stock solution with DMSO and stored at −80° C. in the refrigerator.
1× Fix/Lysis solution preparation: 5× Fix/Lysis and ddH2O were diluted according to 1:4 and preheated in 37° C. incubator, waiting for use.
Flow cytometric staining buffer preparation: 1 g of bovine serum albumin (BSA) and 1 mL of EDTA (0.5 M) solution were added to 500 mL of phosphate buffer solution (PBS) and stored at 4° C. in the refrigerator.
Compound dilution solution: 0.5 g of bovine serum albumin (BSA) was added to 500 mL of phosphate buffer solution (PBS), and stored at 4° C. in the refrigerator.
50 μg/mL IFN-alpha was diluted to 400 ng/mL with Compound Diluent and set aside.
67.5 μL of human whole blood was added to a 96-well plate using a 300 μL electric volley gun. 3.5 μL of prepared test compound was added, mixed well and placed in the cell culture incubator. After 60 min incubation, 400 ng/mL IFN-α (Biolegend 592702, final concentration 20 ng/ml) was added. The obtained was mixed well and placed in the cell culture incubator to continue incubation for 15 min.
After cytokine stimulation, 5 ul of PE-CD3 (BD 555333) antibody was added to each well, mixed and incubation was continued at 4° C. in the refrigerator. At the end, whole blood was transferred to a 96-well deep-well plate using a volley gun, pre-warmed 1× Fix/Lysis solution was added, and cells were lysed and fixed for 12 minutes at 37° C. in an incubator. After being washed, 400 μL of Perm III solution was added, vortexed and incubated on ice for 30 minutes. Cells were then stained by 100 μL of APC-pSTAT5 (1:100) antibody for 50 min at room temperature. This was followed by flow-through instrumentation. The expression of pSTAT5 was quantified by median fluorescence intensity after gating the CD3-positive signaling cluster.

[2] = In vivo pharmacokinetic experiments in Beagle dogs (oral); conditions: for Cmax / MRT / half-life: male, dog, plasma
Description: Experimental Methods: Healthy male Beagle dogs were randomly grouped into 3 […] in each group, and were given the test compounds orally. Before the gavage experiment, the dogs were fasted for 12 h, drank water freely, and were uniformly fed for 4 h after the administration of the drug. 0.083, 0.25, 0.5, 1.0, 2.0, 4.0, 6.0, 8.0, 10 and 24 h after administration; about 600 μL of blood was collected from the forelimb or hindlimb at the above set time points and placed in EDTA-K2 tubes, and the whole blood was collected and stored temporarily in an ice-water bath, and then centrifuged at least 3500 rpm for 10 min within 30 min, and the plasma was separated and frozen in a −70° C. refrigerator for testing.

[3] = In vivo pharmacokinetic experiment in rats (oral); set-up: species or system SD rats; conditions: 20 mg/kg
Description: Experimental method: Healthy male SD rats were randomly grouped into 3 rats in each group and given the test compound orally. The rats were fasted for 12 h before the gavage experiment, and drank water freely, and were fed uniformly for 4 h after the administration of the compounds. Before (0 h) and 0.25, 0.5, 1.0, 2.0, 4.0, 6.0, 8.0 and 24 h after the administration of the test compounds, 0.2 mL of blood was collected from the jugular vein at the above set time points and placed in EDTA-K2 tubes, and the whole blood was collected and stored temporarily in an ice-water bath, and then centrifuged at 11,000 rpm for 5 min within 30 min, the plasma was separated, and frozen at −70° C. in a refrigerator for testing.

T1 sequence (P29597 whole entry E957D): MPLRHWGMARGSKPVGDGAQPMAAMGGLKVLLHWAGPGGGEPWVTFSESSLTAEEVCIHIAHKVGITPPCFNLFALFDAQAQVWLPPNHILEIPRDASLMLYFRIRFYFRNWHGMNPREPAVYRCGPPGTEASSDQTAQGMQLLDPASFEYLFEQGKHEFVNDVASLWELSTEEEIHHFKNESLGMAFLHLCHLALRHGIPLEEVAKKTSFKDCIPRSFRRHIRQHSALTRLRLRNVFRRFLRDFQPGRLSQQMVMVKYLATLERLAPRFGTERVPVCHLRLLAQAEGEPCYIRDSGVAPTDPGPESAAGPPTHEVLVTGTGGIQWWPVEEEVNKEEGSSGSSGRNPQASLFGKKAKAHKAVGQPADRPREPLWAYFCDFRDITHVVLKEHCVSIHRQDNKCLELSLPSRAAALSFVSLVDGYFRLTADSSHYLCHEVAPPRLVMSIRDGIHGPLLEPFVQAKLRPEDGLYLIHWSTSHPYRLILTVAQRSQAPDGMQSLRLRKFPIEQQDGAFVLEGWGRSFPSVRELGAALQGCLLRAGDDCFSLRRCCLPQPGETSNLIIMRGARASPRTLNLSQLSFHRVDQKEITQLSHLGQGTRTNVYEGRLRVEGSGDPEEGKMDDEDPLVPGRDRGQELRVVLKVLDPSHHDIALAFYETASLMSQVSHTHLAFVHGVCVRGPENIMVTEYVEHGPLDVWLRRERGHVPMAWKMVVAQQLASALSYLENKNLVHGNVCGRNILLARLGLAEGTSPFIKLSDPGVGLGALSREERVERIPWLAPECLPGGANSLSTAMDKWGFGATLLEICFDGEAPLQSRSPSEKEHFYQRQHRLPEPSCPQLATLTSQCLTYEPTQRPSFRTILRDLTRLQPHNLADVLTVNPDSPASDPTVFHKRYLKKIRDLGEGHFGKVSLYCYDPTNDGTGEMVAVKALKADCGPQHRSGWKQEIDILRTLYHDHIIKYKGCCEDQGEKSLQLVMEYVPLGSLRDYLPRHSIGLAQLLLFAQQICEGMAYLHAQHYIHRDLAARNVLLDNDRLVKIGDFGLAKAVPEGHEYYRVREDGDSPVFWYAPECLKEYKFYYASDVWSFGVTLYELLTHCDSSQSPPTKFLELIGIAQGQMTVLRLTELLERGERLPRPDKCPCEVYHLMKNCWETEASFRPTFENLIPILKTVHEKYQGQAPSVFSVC

CN=S(C)(=O)c1cc2c(Cl)c(Cl)[nH]c2nc1Nc1cc(NC(=O)C2CC2)nnc1C(=O)NC (centres unmarked) [Example 33, 6-(cyclopropylamido)-4-((2,3-dichloro-5-(N,S-dimethylsulfoximino)-1H-pyrrolo[2,3-b]pyridin-6-yl)amino)-N-methylpyridazine-3-carboxamide]
IC50 (TYK2): 1.2 nM

CN=S(C)(=O)c1cc(C)cnc1Nc1cc(NC(=O)C2CC2)nnc1C(=O)NC (centres unmarked) [Example 15, 6-(cyclopropylcarboxamido)-4-((3-(N,S-dimethylsulfoximino)-5-methylpyridin-2-yl)amino)-N-methylpyridazine-3-carboxamide]
IC50 [1]: 18 nM

CN=S(C)(=O)c1ccc(N)nc1Nc1cc(NC(=O)C2CC2)nnc1C(=O)NC (centres unmarked) [Example 7, 4-((6-amino-3-(N,S-dimethylsulfoximino)pyridin-2-yl)amino)-6-(cyclopropylcarboxamido)-N-methylpyridazine-3-carboxamide]
IC50 [1]: 22.1 nM

CN=S(C)(=O)c1cc(OC)cnc1Nc1cc(NC(=O)C2CC2)nnc1C(=O)NC (centres unmarked) [Example 14, 6-(cyclopropylamido)-4-((3-(N,S-dimethylsulfoximino)-5-methoxypyridin-2-yl)amino)-N-methylpyridazine-3-carboxamide]
IC50 (TYK2): 3.7 nM

CN=S(C)(=O)c1cc2cc[nH]c2nc1Nc1cc(NC(=O)C2CC2)nnc1C(=O)NC (centres unmarked) [Example 31, 6-(cyclopropylcarboxamido)-4-((5-(N,S-dimethylsulfoximino)-1H-pyrrolo[2,3-b]pyridin-6-yl)amino)-N-methylpyridazine-3-carboxamide]
IC50 (TYK2): 1.1 nM

[2H]C([2H])([2H])N=[S@](C)(=O)c1cc(Br)c(N)nc1Nc1cc(NC(=O)C2CC2)nnc1C(=O)NC([2H])([2H])[2H] [Example 41, (R)-4-((6-amino-5-bromo-3-(S-methyl-N-(methyl-d3)sulfonylimino)pyridin-2-yl)amino)-6-(cyclopropylcarboxamide)-N-(methyl-d3)pyridazine-3-carboxamide]
IC50 (TYK2): 0.4 nM

CN=S(C)(=O)c1cc(OCCCOC)cnc1Nc1cc(NC(=O)C2CC2)nnc1C(=O)NC (centres unmarked) [Example 16, 6-(cyclopropylcarboxamido)-4-((3-(N,S-dimethylsulfoximino)-5-(3-methoxypropoxy)pyridin-2-yl)amino)-N-methylpyridazine-3-carboxamide]
IC50 (TYK2): 3.5 nM

[2H]C([2H])([2H])N=[S@](C)(=O)c1cc(C#CC2CC2)c(N)nc1Nc1cc(NC(=O)C2CC2)nnc1C(=O)NC([2H])([2H])[2H] [Example 46]
IC50 (TYK2): 0.1 nM

[2H]C([2H])([2H])NC(=O)c1nnc(NC(=O)C2CC2)cc1Nc1ncccc1S(C)(=O)=NC (centres unmarked) [Example 2, 6-(cyclopropylcarboxamido)-4-((3-(N,S-dimethylsulfoximino)pyridin-2-yl)amino)-N-(methyl-d3)pyridazine-3-carboxamide]
IC50 (TYK2): 2.4 nM

CN=S(C)(=O)c1cc(Br)cnc1Nc1cc(NC(=O)C2CC2)nnc1C(=O)NC (centres unmarked) [Example 13, 4-((5-bromo-3-(N,S-dimethylsulfoximino)pyridin-2-yl)amino)-6-(cyclopropylcarboxamido)-N-methylpyridazine-3-carboxamide]
IC50 (TYK2): 3.9 nM

[2H]C([2H])([2H])NC(=O)c1nnc(NC(=O)C2CC2)cc1Nc1nc(N)c(Br)cc1[S@@](C)(=O)=NC [Example 30, (R)-4-((6-amino-5-bromo-3-(N,S-dimethylsulfoximino)pyridin-2-yl)amino)-6-(cyclopropylformyl)-N-(methyl-d3)pyridazine-3-carboxamide]
AUC ([2]; 2 mg/kg): 8454 ngh/mL
Cmax ([2]; 2 mg/kg): 0.625 µg/mL
MRT ([2]; 2 mg/kg): 11.8 h
half-life ([2]; 2 mg/kg): 8.61 h

[2H]C([2H])([2H])N=[S@](C)(=O)c1cc(Cl)c(N)nc1Nc1cc(NC(=O)C2CC2)nnc1C(=O)NC([2H])([2H])[2H] [Example 40, (R)-4-((6-amino-5-chloro-3-(S-methyl-N-(methyl-d3)sulfonylimino)pyridin-2-yl)amino)-6-(cyclopropylcarboxamide)-N-(methyl-d3)pyridazine-3-carboxamide]
AUC ([2]; 10 mg/kg): 79882 ngh/mL
F ([2]; 10 mg/kg): 136.6%
Cmax ([2]; 10 mg/kg): 4.85 µg/mL
MRT ([2]; 10 mg/kg): 12.7 h
half-life ([2]; 10 mg/kg): 9.28 h
IC50 (TYK2): 0.4 nM
AUC [3]: 22029 ngh/mL
F [3]: 109%
Cmax ([3]; male, SD, rat, plasma): 2.95 µg/mL
MRT ([3]; male, SD, rat, plasma): 4.7 h
half-life ([3]; male, SD, rat, plasma): 2.65 h

[2H]C([2H])([2H])N=[S@](C)(=O)c1cc(C#CC)c(N)nc1Nc1cc(NC(=O)C2CC2)nnc1C(=O)NC([2H])([2H])[2H] [Example 45, (R)-4-((6-amino-3-(S-methyl-N-(methyl-d3)sulfonylimino)-5-(propynyl-1-yl)pyridin-2-yl)amino)-6-(cyclopropylcarboxamide)-N-(methyl-d3)pyridazine-3-carboxamide]
IC50 (TYK2): 0.1 nM

[2H]C([2H])([2H])N=[S@](C)(=O)c1cc(C=C)c(N)nc1Nc1cc(NC(=O)C2CC2)nnc1C(=O)NC([2H])([2H])[2H] [Example 44, (R)-4-((6-amino-3-(S-methyl-N-(methyl-d3)sulfonylimino)-5-vinylpyridin-2-yl)amino)-6-(cyclopropylcarboxamide)-N-(methyl-d3)pyridazine-3-carboxamide]
IC50 (TYK2): 0.3 nM

[2H]C([2H])([2H])N=[S@](C)(=O)c1cc(C2CC2)c(N)nc1Nc1cc(NC(=O)C2CC2)nnc1C(=O)NC([2H])([2H])[2H] [Example 43, (R)-4-((6-amino-5-cyclopropyl-3-(S-methyl-N-(methyl-d3)sulfonylimino)pyridin-2-yl)amino)-6-(cyclopropylcarboxamide)-N-(methyl-d3)pyridazine-3-carboxamide]
IC50 (TYK2): 1.1 nM

[2H]C([2H])([2H])N=[S@](C)(=O)c1cc(I)c(N)nc1Nc1cc(NC(=O)C2CC2)nnc1C(=O)NC([2H])([2H])[2H] [Example 42, (R)-4-((6-amino-5-iodo-3-(S-methyl-N-(methyl-d3)sulfonylimino)pyridin-2-yl)amino)-6-(cyclopropylcarboxamide)-N-(methyl-d3)pyridazine-3-carboxamide]
IC50 (TYK2): 0.4 nM
